Source: article PMC6641291 (ACS Omega, 2018)

What follows are compounds tested against T1, δ^1-pyrroline-5-carboxylate reductase (P5C reductase) (Arabidopsis thaliana, UniProt P54904) (assay: P5C-dependent NADH oxidation, absorbance at […] nm).
T1 sequence (P54904 1-276): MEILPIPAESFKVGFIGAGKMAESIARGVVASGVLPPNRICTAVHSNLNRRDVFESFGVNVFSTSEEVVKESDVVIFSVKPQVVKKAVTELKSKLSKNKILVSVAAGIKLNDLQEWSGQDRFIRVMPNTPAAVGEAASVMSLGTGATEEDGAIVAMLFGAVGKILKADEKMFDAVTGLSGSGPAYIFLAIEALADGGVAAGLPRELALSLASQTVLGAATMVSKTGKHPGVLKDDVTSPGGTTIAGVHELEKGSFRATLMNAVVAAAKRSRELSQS
Assay type: biochemical

Row | SMILES | IC50 [mM]
1 | O=P(O)(O)[C@@H]1CCCN1 [(R)-1, Pyrrolidin-2-ylphosphonic Acid] | 24 ± 4
2 | O=P(O)(O)[C@@H]1CCCON1 [(R)-6, (R)-(−)-1,2-oxazinan-3-ylphosphonic acid] | 45 ± 19
3 | O=P(O)(O)[C@H]1CCCN1 [(S)-1, Pyrrolidin-2-ylphosphonic Acid] | 21 ± 2
4 | O=C(O)[C@@H]1CCCN1 [proline] | 84 ± 3
